The subject of data set [1] is Enterococcus faecalis. Briefly: Antibacterial activity against Enterococcus faecalis ATCC 19433 assessed as inhibition of bacterial growth measured after 16 to 20 hrs by CLSI broth microdilution method. In kind it is functional. To be noted: time 16-20 hrs.
A further data set has as its system Pseudomonas aeruginosa. Briefly: Antibacterial activity against Pseudomonas aeruginosa ATCC 27853 assessed as inhibition of bacterial growth measured after 16 to 20 hrs by CLSI broth microdilution method. The class given is functional. To be noted: time 16-20 hrs. For orientation: In broth dilution the organism is exposed to a series of concentrations in liquid medium.

The subject of data set [2] is Enterococcus faecalis. Put plainly: Antibacterial activity against vancomycin-resistant Enterococcus faecalis ATCC 51299 assessed as inhibition of bacterial growth measured after 16 to 20 hrs by CLSI broth microdilution method. The class given is functional. As to conditions: time 16-20 hrs.
Another data set relates to Staphylococcus aureus. Briefly: Antibacterial activity against methicillin-resistant Staphylococcus aureus ATCC 1556 assessed as inhibition of bacterial growth measured after 16 to 20 hrs by CLSI broth microdilution method. The class given is functional. To be noted: time 16-20 hrs.
The nature of data set [3]: Toxicity in zebra fish embryo assessed as survival rate at 100 ug/ml incubated for 48 hrs. To be noted: zebrafish, zebrafish embryos, at 100 µg/mL. Also on record: species or system Danio rerio.
A short description of data set [4]: Toxicity in zebra fish embryo assessed as mortality at 100 ug/ml incubated for 48 hrs. To be noted: zebrafish, dose 100 µg/ml. Also on record: species or system Danio rerio.
Data set [5] is described as follows: Toxicity in zebra fish embryo assessed as mortality at 33 ug/ml incubated for 48 hrs. As to conditions: zebrafish, dose 33 µg/ml. Also on record: species or system Danio rerio.

Values after ≈ are worked out from the molar mass of the structure shown. A value given as a limit tells only on which side of the number the result lay.

Turning to `CC(=O)O[C@H]1C[C@@]2(C)[C@@H](CC[C@H]3[C@@]4(C)C=CC(=O)[C@@H](C)[C@@H]4[C@H](OC(C)=O)C(=O)[C@@]32C)/C1=C(\CCC=C(C)C)C(=O)O` [HELVOLIC ACID], the MIC (in general, the smallest concentration in the dilution series that meets the test's criterion for growth inhibition) in the data set on Enterococcus faecalis [1] is 16 µg/mL (≈ 28.1 µM); in the data set on Pseudomonas aeruginosa it was over 100 µg/mL; with Enterococcus faecalis [2] it was 8 µg/mL (≈ 14.1 µM); in the data set on Staphylococcus aureus, 4 µg/mL (≈ 7.03 µM).

Consider `CC[C@@](C)(NC(=O)[C@H](CC(C)C)NC(=O)CNC(=O)C(C)(C)NC(=O)C(C)(C)NC(=O)C(C)(C)NC(=O)C(C)(C)NC(=O)[C@@H](NC(C)=O)C(C)C)C(=O)NC(C)(C)C(=O)N1C[C@H](O)C[C@H]1C(=O)N[C@@H](CCC(N)=O)C(=O)N[C@](C)(CC)C(=O)N1C[C@H](O)C[C@H]1C(=O)NC(C)(C)C(=O)N[C@H](CO)Cc1ccccc1`, for which the minimal inhibitory concentration (MIC) in the data set on Enterococcus faecalis [1], in the data set on Pseudomonas aeruginosa, with Enterococcus faecalis [2] and in the data set on Staphylococcus aureus was over 100 µg/mL in each case. For the same molecule, the survival at 48 h, 100 ug/ml in data set [3] was 70%.

For the molecule `CC[C@@](C)(NC(=O)[C@H](CC(C)C)NC(=O)CNC(=O)[C@@](C)(CC)NC(=O)C(C)(C)NC(=O)C(C)(C)NC(=O)C(C)(C)NC(=O)[C@@H](NC(C)=O)C(C)C)C(=O)NC(C)(C)C(=O)N1C[C@H](O)C[C@H]1C(=O)N[C@@H](CCC(N)=O)C(=O)N[C@](C)(CC)C(=O)N1C[C@H](O)C[C@H]1C(=O)NC(C)(C)C(=O)N[C@H](CO)Cc1ccccc1`, the MIC with Enterococcus faecalis [1], with Pseudomonas aeruginosa, in the data set on Enterococcus faecalis [2] and with Staphylococcus aureus was over 100 µg/mL throughout. Further, the survival at 48 h, 100 ug/ml in data set [3] was 75%.

Consider GENTAMICIN, for which the MIC in the data set on Enterococcus faecalis [1] was determined as 8 µg/mL; with Pseudomonas aeruginosa it was 2 µg/mL; with Enterococcus faecalis [2], 4 µg/mL; in the data set with Staphylococcus aureus, 4 µg/mL.

Turning to `CC[C@@](C)(NC(=O)[C@H](CC(C)C)NC(=O)CNC(=O)[C@@](C)(CC)NC(=O)C(C)(C)NC(=O)C(C)(C)NC(=O)C(C)(C)NC(=O)[C@H](CC(C)C)NC(C)=O)C(=O)NC(C)(C)C(=O)N1C[C@H](O)C[C@H]1C(=O)N[C@@H](CCC(N)=O)C(=O)N[C@](C)(CC)C(=O)N1C[C@H](O)C[C@H]1C(=O)NC(C)(C)C(=O)N[C@H](CO)Cc1ccccc1`, the minimal inhibitory concentration (MIC) in the data set with Enterococcus faecalis [1], with Pseudomonas aeruginosa, with Enterococcus faecalis [2] and in the data set with Staphylococcus aureus was over 100 µg/mL each time. The Activity result in data set [4] is “Toxic”.

For `CC[C@@](C)(NC(=O)[C@H](CC(C)C)NC(=O)CNC(=O)C(C)(C)NC(=O)C(C)(C)NC(=O)C(C)(C)NC(=O)C(C)(C)NC(=O)[C@H](Cc1ccccc1)NC(C)=O)C(=O)NC(C)(C)C(=O)N1C[C@H](O)C[C@H]1C(=O)N[C@@H](CCC(N)=O)C(=O)N[C@](C)(CC)C(=O)N1C[C@H](O)C[C@H]1C(=O)NC(C)(C)C(=O)N[C@H](CO)Cc1ccccc1`, the minimal inhibitory concentration (MIC) in the data set on Enterococcus faecalis [1] was over 100 µg/mL; in the data set with Pseudomonas aeruginosa, over 100 µg/mL; in the data set with Enterococcus faecalis [2] it was over 100 µg/mL; with Staphylococcus aureus, 64 µg/mL (≈ 40.7 µM). Also, the Activity entry in data set [5] is listed as “Toxic”.

In the case of `CC[C@@](C)(NC(=O)[C@H](CC(C)C)NC(=O)CNC(=O)C(C)(C)NC(=O)C(C)(C)NC(=O)C(C)(C)NC(=O)C(C)(C)NC(=O)[C@H](CC(C)C)NC(C)=O)C(=O)NC(C)(C)C(=O)N1C[C@H](O)C[C@H]1C(=O)N[C@@H](CCC(N)=O)C(=O)N[C@](C)(CC)C(=O)N1C[C@H](O)C[C@H]1C(=O)NC(C)(C)C(=O)N[C@H](CO)Cc1ccccc1`, the MIC in the data set on Enterococcus faecalis [1], in the data set with Pseudomonas aeruginosa, in the data set on Enterococcus faecalis [2] and in the data set on Staphylococcus aureus was over 100 µg/mL in each case. Also, the Activity entry in data set [4] is reported as “Toxic”.

Turning to `CC[C@@](C)(NC(=O)[C@H](CC(C)C)NC(=O)CNC(=O)[C@@](C)(CC)NC(=O)C(C)(C)NC(=O)C(C)(C)NC(=O)C(C)(C)NC(=O)[C@H](Cc1ccccc1)NC(C)=O)C(=O)NC(C)(C)C(=O)N1C[C@H](O)C[C@H]1C(=O)N[C@@H](CCC(N)=O)C(=O)N[C@](C)(CC)C(=O)N1C[C@H](O)C[C@H]1C(=O)NC(C)(C)C(=O)N[C@H](CO)Cc1ccccc1`, the MIC is 64 µg/mL (≈ 40.3 µM) with Enterococcus faecalis [1], over 100 µg/mL with Pseudomonas aeruginosa, 64 µg/mL (≈ 40.3 µM) in the data set with Enterococcus faecalis [2] and 32 µg/mL (≈ 20.2 µM) in the data set with Staphylococcus aureus. Further, the Activity entry in data set [5] was “Toxic”.

The values above are taken from ChEMBL document CHEMBL4837185, “Emerimicins V-X, 15-Residue Peptaibols Discovered from an Acremonium sp. through Integrated Genomic and Chemical Approaches” (J Nat Prod, 2021).
